Laboratory results: patent publication US4001428A, “Cyclopropane derivatives and use thereof as cell membrane mobility agents” (Polymer Sciences Corporation, priority 1974, dated 1977)
Each block holds one compound with its values, some of them ahead of it.

Columns and labels:
rabbit lymphocytes = assay: Cap formation on lymphocytes treated with fluorescent antibody (membrane mobility); format: cell-based
Method: Cap formation was followed on rabbit lymphocytes preincubated for various periods of time with one of the compounds, then treated with fluorescent antibody. At least 20 minutes preincubation with the aqueous dispersion of agent A2 C were required to produce a change in the observed rate from that of the control and between 1 and 2 h incubation was required for maximum response. A 1-h period was utilized in most experiments.
FIG. 2 illustrates the rate of cap formation in lymphocytes treated with A2 C. In each of these experiments rabbit blood was anticoagulated with heparin (200 I.U./cm^3) and diluted with NaCl-phosphate buffer, pH 7.3 (137 mM NaCl-1.8 mM KH2 PO4 -8.2 mM Na2 HPO4) to 40% of original volume. Diluted blood was layered over sodium metrizoate (Nyegaard, Oslo, Norway)-Ficoll (Pharmacia, Uppsala, Sweden) mixture (containing 6.3% Ficoll and 10% sodium metrizoate), and centrifuged for 30 min. at 400 g at 25° C. Cells collected from the interphase contained over 80% lymphocytes. Cells were centrifuged, washed 3 times in buffer containing albumin and resuspended in the same or A2 C buffer. (A2 C was suspended in buffer (with Vortex) and albumin added). Final concentrations: lymphocytes 10^7 cells/cm^3.A2 C 0.02-0.2 μl/cm^3, 0.2% albumin, 5 mM glucose. Usual sample volume: 0.2 cm^3. The cell suspension was incubated at 22° or 24° C for 60 min. […] Expt I: 0.1 1 A 2 C per cm^3; (log concn -3.7); temp. 22 C. Expt II: 0.02 and 0.2 A2 C per cm^3; temp. 24° C. Expt III: 0.2 A2 C per cm^3; temp. 24° C.

lymphocytes = assay: Viability/cytotoxicity of lymphocytes, dye-exclusion test with trypan blue; format: cell-based; conditions: 60 minutes incubation, FIG. 1
Method: The viability of the cells thus incubated was evaluated by the dye-exclusion test, using trypan blue.

hen red blood cells = assay: Fusion of hen red blood cells; format: cell-based; conditions: 0.125 to 0.5 μl/cc of cell suspension, 37° C
Method: (§1) Blood from the brachial vein of adult hens was mixed with heparin (as anticoagulant), centrifuged and the buffy coat removed. The erythrocytes were washed twice with 150 mM NaCl and once with buffer containing 76 mM sodium acetate, 70 mM NaCl, 1 mM CaCl2 and 100 mg/cc Dextran (MW 70,000) Pharmacia, Uppsala, Sweden (pH 5.7). The buffer is similar to but simpler than that used in a similar procedure by Lucy et al. The cells were resuspended in the same buffer and mixed with an equal volume of a suspension of the mobility agent A2 C dispersed in 150 mM NaCl by sonication. […] The final concentrations of A2 C used ranged between 0.06μl to 0.5 μl/cc containing 2-3 × 10^8 cells, 0.5 mM CaCl2, 38 mM sodium acetate, 110 mM NaCl and dextran (50 mg/cc). Cell suspensions were incubated at the desired temperature, mixed gently every 5 - 15 minutes and aliquots removed at intervals for viewing and photography at room temperature.

neurotransmitter release = assay: Neurotransmitter release from cells; format: cell-based
Source text: Many intracellular agents are released from cells at rates which are below that desirable for optimum bilogical activity. […] For example, the use of the membrane mobility agents of the invention on brain tissue would lead to more efficient response to pharmacologically-active compounds and stimuli (such as electrical stimuli) on such brain tissue.

mastocytoma = assay: Agglutination of mastocytoma cells by wheat germ agglutinin and cap formation; format: cell-based
Source text: Some malignant cells, like mastocytoma, agglutinate in the presence of wheat germ agglutinin.

[1] = Retained activity of sonicated suspension; format: physicochemical; conditions: dispersed in 150 mM NaCl by sonication, ca. 2 min
Method: as §1

glutathione = conditions: within cells; cited from earlier work

activity of sonicated suspension over time [1]: remains active for several hours
SMILES: CCCCCCCCC1CC1CCCCCCCC(=O)OCCOCCOC (stereo not shown) [A2 C, 2-(2-methoxy)-ethoxyethyl 8-(2-n-octylcyclopropyl octanoate]
rate of cap formation in treated cells, increase over controls (rabbit lymphocytes; 0.02-0.2 μl/cm^3, 60 min incubation at 22° or 24° C, FIG. 2): ≤ 50% | effect of inherent "high" or "low" capacity for cap formation on the effects of the agent (rabbit lymphocytes; FIG. 2): does not alter the effects produced by the mobility agent | initial state of treated cells, extrapolation to zero cap formation time (rabbit lymphocytes; FIG. 2): might be initially more "prepared" to form caps than the control cells | preincubation time required to produce a change in the observed rate of cap formation from that of control (rabbit lymphocytes; aqueous dispersion of agent, rabbit lymphocytes): At least 20 minutes | cytotoxicity on lymphocytes relative to concentration affecting mobility (lymphocytes): toxic at concentrations considerably above that at which maximum effect on mobility was observed | extent of erythrocytes eventually involved in fusion (hen red blood cells): most of the erythrocytes | fusion of erythrocytes, degree of fusion (hen red blood cells): increasing degrees of fusion, starting with binucleated, trinucleated and tetranucleated cells and proceeding to multi-nucleated cells | rounding and swelling of the cells (hen red blood cells): rounding and swelling of the cells | neurotransmitter release (neurotransmitter release): augmented by a small factor | cap formation on mastocytoma cells (mastocytoma): cause caps to form | extent of agglutination (mastocytoma; wheat germ agglutinin): diminish the extent of agglutination

SMILES: CCCCCCCCC1CC1CCCCCCCCOCCOCCOC (stereo not shown) [A2 CE, 2-(2-methoxy)-ethoxyethyl 8-(2-n-octylcyclopropyl)-n-octyl ether]
effect on cap formation / effectiveness as membrane mobility agent (rabbit lymphocytes; standard incubation period, FIGS. 3 and 4): less than the ester A1 C in effect

SMILES: CCCCCCCCCCCCCCCCCC(=O)OCCOCCOC [A2 S, 2-(2-methoxy)-ethoxyethyl octadecanoate, reference compound]
membrane mobility activity (active/inactive) (rabbit lymphocytes; classification of compounds of Table I): inactive

SMILES: CCCCCCCCC1CC1CCCCCCCC(=O)OCCOCCOCCOC (stereo not shown) [A3 C, 2-[2-(2-methoxy)-ethoxy]ethoxyethyl 8-(2-n-octycyclopropyl)-octanoate]
cytotoxicity on lymphocytes relative to concentration affecting mobility (lymphocytes): toxicity with amounts close to that at which an effect on mobility was seen

SMILES: CN1CCN(C(=O)N=NC(=O)N2CCN(C)CC2)CC1 [DIP, diazene dicarboxylic acid bis(N'-methylpiperazide)]
oxidation of intracellular glutathione (glutathione): oxidizes the glutathione within cells to glutathione disulfide
